Data on four compounds can be found in patent US10532084B2, “Chondrocyte extracellular matrix-derived peptide” (EYEBIO KOREA, priority 2016, dated 2020).

Test [1] relates to human vascular endothelial cells (HUVEC). In words: Tubing assay (VEGF-induced tube formation). The class given is cell-based. As to conditions: 50 ng/ml recombinant human VEGF, 4 hours. How it is done: The antiangiogenic effect of hydroxy proline-GQDGLAGPK was confirmed by tubing assay using human vascular endothelial cells (HUVEC).
HUVEC cells were stained with calcein-AM and then dispensed on a Matrigel-coated 48-well plate, treated with collagen, CPI and CPII at concentrations together with 50 ng/ml of recombinant human VEGF, and after 4 hours of incubation at 37° C., tube formation was observed by fluorescence microscopy (Leica) and tube length was analyzed by Image lab software (Bio-Rad Laboratories).
Tubing assay using human vascular endothelial cells (HUVEC) was performed to confirm the anti-angiogenic effect of hydroxyl proline-GQDGLAGPK.

Test [2] has as its system choroidal neovascularization (CNV). Description: Laser-induced choroidal neovascularization (CNV), lesion size by retina-choroid flat-mount. Type of test: in vivo, C57BL/6 mice. Particulars: mouse, laser irradiation; 2 μg intraocular injection for 5 days. How it is done:
C57BL/6 mice were purchased from Orient Bio and the animal experiments was carried out in accordance with the guidelines approved by the University of Inje (No, 2013-053) and ARVO regarding animal use for eye and vision studies. 6-week-old C57BL/6 mice were treated with diode green laser (532 nm, 150 mW, 0.1 sec, […], photocoagulator) to damage the retinal optic nerve area. […] The above experiment for each experiment group was performed using both eyes of five mice each. […]
The mouse was anesthetized and injected with 25 mg/ml of FITC-dextran in […] of retro-orbital. After 30 minutes, the mouse was euthanized and the eyeball was extracted and fixed with 10% formalin and then, the cornea and lens were removed and flat mounted on the cover glass. The neovasculature stained with FITC-dextran was observed by fluorescence microscopy (Leica) and the lesion size was measured by Image J program. […]

Test [3] can be described thus: Tear amount by phenol red-impregnated cotton threads, dry eye model. The class given is in vivo, NOD.B10.H2b mice. As to conditions: 10 days of treatment after removal of dry stress; normal 0.22±0.01, DS 10D 0.03±0.01. On the procedure:
Tear production was measured by a method reported using phenol red-impregnated cotton threads (Zone-Quick, Oasis, Glendora, Calif.) (Villareal A L, Farley W, Pflugfelder S C. Effect of topical ophthalmic epinastine and olopatadine on tear volume in mice. Eye Contact Lens. 2006; 32 (6): 272-276.). […] The measured lachrymal fluid in the millimeter was compared with a standard curve expressed as a cotton thread which was soaked with the expected tear amount of mouse of basic solution ([…] of 0.9% salt and 5 mL of 5 N NaOH) for 20 seconds.
The degree of tear generation was measured by phenol red-impregnated cotton threads.

The next test relates to corneal surface. Description: Corneal surface irregularity (smoothness) score, dry eye model. The class given is in vivo, NOD.B10.H2b mice. As to conditions: day 10 after removal of dry stress; grades 0-5; normal 0.33±0.58, DS 10D 4.33±0.58. On the procedure: (§1) NOD.B10.H2^b mice were purchased from Jackson Laboratory (Bar Harbor, Me., USA). Animal experiments were carried out in accordance with the guidelines approved by the University of Inje (No.; 2014-029) and ARVO regarding animal use for eye and vision research. NOD.B10.H2^b mice at 12-16 weeks old were exposed to 40-50% ambient humidity and ventilation using a fan for 18 hours a day as dry stress and subcutaneously injected with 0.5 mg/0.2 mL muscarinic receptor blocker. In addition, scopolamine hydrobromide (Sigma-Aldrich, St. Louis, Mo.) was injected alternately to the […] hips four times a day for 10 days at 9 am, […].
(§2) After 10 days of ocular dry stress, the scopolamine injection was stopped, and switched to a normal humidity and temperature environment and the dry stress was removed, 10 mg/ml Hyp-[…] and collagen were dissolved in normal saline to administer 5 μL each 5 times a day for 10 days, and normal saline and 0.1% HA were administered to the eyeball 5 times a day for 10 days. Three mice were used in each of the six experimental groups using both eyes of the mice and all experiments were repeated.
As for the curvature of the corneal surface, a reflected image of the white ring was obtained from an optical fiber ring illumination of a stereoscopic microscope (SZX7; Olympus) after anesthetizing the animal. Corneal smoothness was assessed by grading the irregularity of corneal epithelial cells reflected in the white ring of the digital image. Corneal irregularity severity score was calculated by dividing the reflection ring into quadrants and grading into 5 grades according to degree of irregularity. No irregularity is grade 0, irregularity of ¼ (quarter) is grade 1; irregularity of 2/4 (two-quarters) is grade 2; irregularity of ¾ (three-quarters) is grade 3; entire irregularity is grade 4; and […] and thus all the rings were confirmed.
The degree of corneal curvature in each experiment group was quantified to confirm the bendability of the corneal surface.

The next test has as its system corneal epithelial cell. In words: Corneal epithelial cell detachment (H&E), dry eye model. The class given is in vivo, NOD.B10.H2b mice. Particulars: 10 days of treatment after removal of dry stress; DS 10D 2.29±0.57. How it is done: as §1, §2
The test system of test [4] is conjunctival goblet cells. In words: Distribution of conjunctival goblet cells (PAS staining), dry eye model. Type of test: in vivo, NOD.B10.H2b mice. Particulars: 10 days of treatment after removal of dry stress; normal 14.38±0.44, DS 10D 6.02±0.29. How it is done:
as §1, §2
The distribution of conjunctival goblet cells according to eye drop in dry eye mice was observed.

In another test the test system is VEGF, ICAM and MCP-1. Description: Quantitative real-time RT-PCR of retina and choroid, laser CNV model. The class given is in vivo, C57BL/6 mice. As to conditions: mouse, 14 days after laser; 5 μg; laser-treated group increased about 55 times. On the procedure:
In order to confirm the inhibitory effect of hydroxy proline-GQDGLAGPK on neovascularization-related gene expression, RNA was extracted using RNeasy Mini kit (Qiagen) in mixture of retina and choroid of extracted mice eyeballs, and cDNA was synthesized by using oligo(dT) primer and reverse transcriptase. PCR products were amplified using the specific primer set (COSMOGENETECH, Korea) shown in Table 1 and SYBR Green PCR 2X PreMix (Enzynomics) and for the PCR conditions, the samples were incubated at 95° C. for 10 minutes, and 40 PCR cycles at 95° C. for 15 seconds, 60° C. for 30 seconds and 72° C. for 15 seconds, were performed. Relative quantification was calculated using 2-(DDCT) method [Livak and Schmittgen, 2001; DDCT=(CT, target-CT, actin) control group (CT, target-CT, actin) control group].
After 14 days of laser irradiation in mouse, RNA was extracted from retina and choroid to analyze the gene expression by real-time RT-PCR.
(In qPCR the cycle at which signal appears reflects the starting amount.)

“Also recorded” adds a separate entry of the source.

As for collagen [reference compound], in test [1], the “inhibition of tube formation (angiogenesis)” value was “significant inhibition of angiogenesis”. Further, the CNV lesions result in test [2] is “reduced; also recorded: decreased”. For the same compound, the tear amount in test [3] worked out at 0.13 ± 0.02 µL. Moreover, the “degree of curvature (irregularity score) of the corneal surface” value in the test on corneal surface worked out at 3.67±1.16 points. Also, the “corneal epithelial cell detachment” value in the test on corneal epithelial cell was 0.86±0.29 /0.1 mm^2. The conjunctival goblet cells in test [4] was 11.05±0.33 /0.1 mm^2.

As for “Avastin: a remedy of an age-related macular degeneration; positive control [reference compound]”, the “VEGF gene expression in retina and choroid” value in the test on VEGF, ICAM and MCP-1 was “decreased to the level similar to that of the laser-untreated group”.

For the compound GDRGD [CPI], the “inhibition of tube formation (angiogenesis)” value in test [1] was “significant inhibition of angiogenesis”. Further, the CNV lesions result in test [2] is “reduced; also recorded: decreased”.

`O=c1ccn([C@@H]2O[C@H](COP(=O)([O-])OP(=O)([O-])OP(=O)([O-])OP(=O)([O-])OC[C@H]3O[C@@H](n4ccc(=O)[nH]c4=O)[C@H](O)[C@@H]3O)[C@@H](O)[C@H]2O)c(=O)[nH]1.[Na+].[Na+].[Na+].[Na+]` [DQS, reference compound]: the tear amount in test [3] is 0.16 ± 0.02 µL. The “degree of curvature (irregularity score) of the corneal surface” value in the test with corneal surface worked out at 3.0±1.0 points. For the same compound, the “corneal epithelial cell detachment” value in the test with corneal epithelial cell is recorded as 0.095±0.17 /0.1 mm^2. In test [4], the conjunctival goblet cells is 8.86±0.29 /0.1 mm^2.
